Values quoted from earlier work, collected in article PMC7270110, “Labeled oxytocin administered via the intranasal route reaches the brain in rhesus macaques” (Nature Communications, 2020).
Several values for one entry are separate records, joined by “and”; a condition that tells them apart may be missing. Identical values can stand only once.

Conditions: LOQ 10 pg/ml, cited from earlier work
Protocol: Further, at 60 min in the previous study, the CSF concentrations of d5OT after IN delivery of 80 IU were highly variable (11, 16, 67, and 221 pg/ml), and would have been detectable in only two of the monkeys using the a ... || page 8: 4. It is surprising that no CSF d5 OT was detected at 60 or 120 minutes in CSF after IN administration. […] In our previous study (Lee et al., Mol Psychiatry 2018), after IN administration, CSF d5OT concentration at 60 minutes was quantified in 4 monkeys as follows: 11.28, 15.99, 67.65 and 221.62 pg/ml. In this previous study, the limit of quantification (LOQ) for d5OT was 10 pg/ml. The LOQ of d5OT in the present study was 100 pg/ml and the method dete ...

Compound: CC[C@H](C)[C@@H]1NC(=O)[C@H](Cc2ccc(O)cc2)NC(=O)[C@@H](N)CSSC[C@@H](C(=O)N2CCC[C@H]2C(=O)N[C@@H](CC(C)C)C(=O)NCC(N)=O)NC(=O)[C@H](CC(N)=O)NC(=O)[C@H](CCC(N)=O)NC1=O [d5OT]
- CSF concentrations of d5OT (60 min after IN delivery of 80 IU, individual monkeys, previous study): 11 pg/mL and 16 pg/mL and 67 pg/mL and 221 pg/mL
- CSF d5OT concentration (60 minutes after IN administration, 4 individual monkeys, ref Lee et al., Mol Psychiatry 2018): 11.28 pg/mL and 15.99 pg/mL and 67.65 pg/mL and 221.62 pg/mL
